The values that follow come from patent US20020160968A1, “Inhibitors of cellular niacinamide mononucleotide formation and their use in cancer therapy” (Klinge Pharma GmbH, priority 1999, published 2002).

One may read the minimal effective concentration as the lowest level tested that produced the effect sought. Read a high minimal effective concentration as a need for much substance. Usually IC50 stands for the concentration at which inhibition is half-maximal.

For one assay, the system named is HepG2 cells. The experiment in a line: Cell growth under high-density conditions (SRB assay), delayed cell death (DCD). The assay is classed as cell-based, human. The following applies: Homo sapiens, high density HepG2 cultures. In general terms: Sulforhodamine B stains cellular protein and so reports cell mass.
For the next assay, the system named is Hep G2 cells. The experiment in a line: Nicotinamide Reversibility Assay / cell growth inhibition of Hep G2 cells (SRB, six days). The assay is classed as cell-based, human. The following applies: for IC50: Homo sapiens, HepG2, 144 h, six days of compound incubation, SRB, read-out: Cell growth inhibition IC50-values [μM] Hep G2. On the procedure:
Nicotinamide Reversibility Assay
Hep G2 cells derived from a human liver carcinoma were plated at a density of 20,000 cells/ml in 12-well plastic dishes. Cultivation occurred in Richters IMEM-ZO nutrient medium with 5% fetal calf serum (FCS) in a tissue culture incubator with a gas mixture of 5% CO2 and 95% air at a temperature of 37° C. One day after plating, the culture medium was aspirated from the cells and replaced by fresh medium which contained the respective concentrations of the test compounds and where applicable of the nicotinamide. For the individual concentrations and the controls without test compounds, three-fold batches were done for each. Three days after the beginning of treatment, the medium was again renewed with the test compounds and where applicable the nicotinamide. After six days of compound incubation, the test was ended and the protein amount in the individual wells was determined with the sulforhodamin-B-method (according. to P. Skehan et al.: New Colorimetric Cytotoxicity Assay for Anticancer-Drug Screening. J. Natl. Cancer Inst. 82: 1107-1112, 1990). The IC50-values were taken from the dose-response curves and given as a comparative measurement for the activity of the test compounds.

The target in assay [1] is T1, niacinamide phosphoribosyltransferase (NAPRT, EC 2.4.2.12) (Homo sapiens, UniProt P43490).
T1 construct: protamine-treated cytoplasmic fraction of K-562 cells as the enzyme source; endogenous in cells; host or cells: K-562 (ATCC CCL 243), freeze-thaw lysate, 23,000 x g supernatant treated with protamine sulfate
The experiment in a line: Niacinamide phosphoribosyltransferase (NAPRT) assay, protamine-treated cytoplasmic fraction of K-562 cells. Format: biochemical. The following applies: for NAM: niacinamide mononucleotide formed, controls 79.1 and 71.8; for NA: niacinamide remaining, controls 389.7 and 397.0; for NAM [%] / NA [%]: portion of total radioactivity. On the procedure:
The effect of the compounds on the enzyme niacinamide phosphoribosyltransferase (NAPRT, EC 2.4.2.12) was investigated using for example protamine-treated cytoplasmic fraction of K-562 cells as the enzyme source according to the NAPRT assay described in the experimental part below. The investigated compounds were used in concentrations of 10 μM, except for K22387 and K22133 where the concentration was 1 μM.
The assay is based on the amount of radioactive incorporation from ^14C-labelled niacinamide into niacinamide mononucleotide (NAM). NAM is subsequently separated from niacinamide (NA) by thin-layer chromatography and its quantity is determined by autoradiography.
Niacinamide Phosphoribosyltransferase (NAPRT) Assay
The human cell line K-562 (chronic myelogenous leukaemia) is obtained from the American Type Culture Collection (ATCC CCL 243), Rockville, Md., USA. The K-562 cells are cultured in RPMI (Sigma, Deisenhofen, Germany, Product No.: R6504) containing 10% foetal calf serum (PAN Systems GmbH, Aidenbach, Germany), 2.2 g/l NaHCO3 (Merck, Darmstadt, Germany), 50,000 IU/l penicillin and 50 mg/l streptomycin (Sigma).
The K-562 cells are grown in RPMI supplemented with 10% FCS at 37° C. and 100% humidity in a 5% CO2 atmosphere up to a density of 2×10^6 cells per ml. Under these conditions, the cells grow logarithmically with a generation time of 24 hours. The cells are harvested by aspiration and centrifugation (250×g, 10 min, RT). Thereafter, the cells are washed at least 3 times by repeated centrifugation (250×g, 10 min, RT) and resuspension in CMF-PBS. After counting the cell suspension in a haematocytometer, the cells are spun into a tight pellet (390×g, […], RT) and the supernatant is carefully drawn off with a Pasteur pipette. The cells are then vortexed into suspension in sufficient lysis buffer to give a final concentration of 3×10^7 cells per ml. The suspension is frozen at −80° C. for at least one day and thawed slowly at room temperature to break up the cells. The breakage is usually greater than 95%, as determined by trypan blue exclusion. Following centrifugation at 23,000×g for 90 min at 0° C., the clarified supernatant is recovered on ice and 70 μl of 1% protamine sulfate is added per ml of supernatant. After 15 min on ice, the cloudy suspension is centrifuged a further 30 min at 23,000×g and 0° C. The final supernatant is stored in small aliquots at […] This supernatant contains about 950 to 1440 μg protein per ml. 120 to 140 μg protein per sample is used in the NAPRT assay (total assay volume: 0.5 ml).
The niacinamide phosphoribosyltransferase activity is determined in a reaction solution of 0.5 ml consisting of 5 mM MgCl2, 2 mM ATP, 0.5 mM PRPP, and [^14C]niacinamide (10^−5 M to 10^−7 M) in 50 mM Tris buffer pH 8.8 (final concentrations in the assay). The reaction is started by adding 100 to 120 μl cell extract. After incubation for 1 hour at 37° C., the enzyme reaction is stopped by adding cold niacinamide (50 μl of a 100 mM niacinamide solution per 0.5 ml reaction mixture) and by heating on a heating block (2 min, 105° C.). The precipitate is removed by centrifugation (2,500×g, 10 min, 4° C.) and the supernatant is collected into a […] polypropylene vial with screw cap and stored at −20° C. until further analysis. A 10 μl aliquot is taken from the supernatant to determine the total amount of radioactivity.
The ^14C-labelled components of the reaction mixture are separated and identified using thin-layer chromatography (TLC). 5 to 7.5 μl of each sample is transferred to a cellulose TLC foil using an automated sample applicator. The cellulose foil is developed using 1 M NH4 acetate:ethanol (3:7) as solvent. The chromatogram is run with added non-radioactive standards of NAD, NADP, NAM and niacinamide, and the spots were identified by UV absorption (RF values see Table 7). For autoradiography, the chromatogram is exposed to an imaging plate BAS-IIIs in a hypercassette for at least two days. […]

[2] abbreviates: minimum concentration which, despite initial growth, induced cell death below the number of initially seeded cells, Table 2.
Setting [3] is: compound 10 μM, controls 16.88 and 15.32.
[4] abbreviates: compound 10 μM, controls 83.12 and 84.68.

T1 sequence (P43490 whole entry): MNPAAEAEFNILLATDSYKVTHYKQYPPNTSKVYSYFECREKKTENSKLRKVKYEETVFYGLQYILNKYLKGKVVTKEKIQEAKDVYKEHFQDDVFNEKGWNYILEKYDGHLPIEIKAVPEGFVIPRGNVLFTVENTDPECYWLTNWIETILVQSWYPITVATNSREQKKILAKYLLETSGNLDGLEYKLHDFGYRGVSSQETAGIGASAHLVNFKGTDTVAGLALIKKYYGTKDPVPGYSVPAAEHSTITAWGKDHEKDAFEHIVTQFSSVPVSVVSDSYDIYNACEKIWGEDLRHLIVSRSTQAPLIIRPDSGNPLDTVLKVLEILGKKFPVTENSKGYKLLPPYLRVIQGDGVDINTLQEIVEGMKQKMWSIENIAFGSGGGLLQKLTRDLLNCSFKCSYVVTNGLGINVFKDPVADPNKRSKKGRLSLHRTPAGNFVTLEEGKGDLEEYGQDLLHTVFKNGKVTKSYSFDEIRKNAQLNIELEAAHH

Compound `O=C(NCCCCC1CCN(S(=O)(=O)c2ccc3ccccc3c2)CC1)Nc1cccnc1` [Compound K22365, 1-{4-[1-(naphthalene-2-sulfonyl)-piperidine-4-yl)-butyl}-3-pyridine-3-yl-urea] registered a minimal effective concentration in the assay on HepG2 cells (Table 5) of 3 µM. Also, the minimal effective concentration with HepG2 cells (setting [2]) turned out to be 3 µM. For the same compound, in the assay on Hep G2 cells (Hep G2), the 50% inhibitory concentration (IC50) stood at 0.6 µM. Besides, in assay [1] (compound 10 μM), the “NAM” value was 0.0 pmol/h and the “NA” value came to 468.8 pmol/h. In addition, the “NAM [%]” value in assay [1] (setting [3]) is 0.00%. Besides, in assay [1] (setting [4]), the “NA [%]” value was 100.00%.

Regarding `NC(Cc1ccc(O)c(N=Nc2ccccc2C(=O)N2CCC(CCCCNC(=O)/C=C/c3cccnc3)CC2)c1)C(=O)O` (stereo not drawn) [Compound K22408, 2-amino-3-[4-hydroxy-3-(2-{4-[4-(3-pyridine-3-yl-acryloyl-amino)-butyl]-piperidine-1-carbonyl}-phenylazo)-phenyl]-propanoic acid trihydrate], the minimal effective concentration in the assay on HepG2 cells (Table 5) and in the assay with HepG2 cells (setting [2]) was 1 µM throughout. Moreover, the 50% inhibitory concentration (IC50) with Hep G2 cells (Hep G2) was determined as 0.2 µM. Moreover, in assay [1] (compound 10 μM), the “NAM” value is on record as 0.0 pmol/h. In addition, the “NA” value in assay [1] (compound 10 μM) is listed as 468.8 pmol/h. In addition, the “NAM [%]” value in assay [1] (setting [3]) is recorded as 0.00%. The “NA [%]” value in assay [1] (setting [4]) is 100.00%.

In the case of `Cn1c(CCNC(=O)/C=C/c2cccnc2)ccc1CN1CCN(C(c2ccccc2)c2ccccc2)CC1` [Compound K22350, N-{2-[5-(4-benzhydryl-piperazine-1-yl-methyl)-1-methyl-1H-pyrrole-2-yl]-ethyl}-3-pyridine-3-yl-acrylamide], the minimal effective concentration in the assay on HepG2 cells (Table 5) amounted to 1 µM. This compound had a minimal effective concentration with HepG2 cells (setting [2]) of 1 µM. In addition, in the assay on Hep G2 cells (Hep G2), the half-maximal inhibitory concentration (IC50) amounted to 0.7 µM. In assay [1] (compound 10 μM), the “NAM” value amounted to 0.0 pmol/h and the “NA” value is recorded as 468.8 pmol/h. Moreover, in assay [1] (setting [3]), the “NAM [%]” value was determined as 0.00%. The “NA [%]” value in assay [1] (setting [4]) was 100.00%.

In the case of `O=C(NCCCCC1CCN(C(=O)N2c3ccccc3CCc3ccccc32)CC1)Nc1cccnc1` [Compound K22387, 1-{4-[1-(1,11-dihydro-dibenzene[b,f]azepine-5-carbonyl)-piperidine-4-yl]-butyl}-3-pyridine-3-yl-urea], the minimal effective concentration in the assay with HepG2 cells (Table 5) is 0.01 µM. This compound displayed a minimal effective concentration in the assay with HepG2 cells (setting [2]) of 0.01 µM. Besides, in the assay with Hep G2 cells (Hep G2), the “Influence of the addition of nicotinamide on the action on cell growth (FIGS. 20 to 27)” value is recorded as “can be antagonized” and the IC50 came out at 0.002 µM. For the same compound, the “Reversal by Niacinamide” value in the assay on Hep G2 cells (Hep G2 cell growth inhibition with added nicotinamide) is listed as “yes”. Besides, in assay [1] (compound 1 μM), the “NAM” value was 0.0 pmol/h, the “NA” value was determined as 468.8 pmol/h, the “NA [%]” value was determined as 100.00% and the “NAM [%]” value came out at 0.00%.
